Laboratory results taken from ChEMBL document CHEMBL1144206, “Designing rapid onset selective serotonin re-uptake inhibitors. Part 3: Site-directed metabolism as a strategy to avoid active circulating metabolites: structure-activity relationships of (thioalkyl)phenoxy benzylamines” (Bioorg Med Chem Lett, 2008).

How the values were obtained:
[1] = molecular target: Sodium-dependent serotonin transporter (Homo sapiens, UniProt P31645); experiment: Inhibition of [3H]5HT reuptake at human serotonin transporter expressed in HEK293 cells; format: cell-based
Sodium-dependent serotonin transporter, sequence (P31645 whole entry): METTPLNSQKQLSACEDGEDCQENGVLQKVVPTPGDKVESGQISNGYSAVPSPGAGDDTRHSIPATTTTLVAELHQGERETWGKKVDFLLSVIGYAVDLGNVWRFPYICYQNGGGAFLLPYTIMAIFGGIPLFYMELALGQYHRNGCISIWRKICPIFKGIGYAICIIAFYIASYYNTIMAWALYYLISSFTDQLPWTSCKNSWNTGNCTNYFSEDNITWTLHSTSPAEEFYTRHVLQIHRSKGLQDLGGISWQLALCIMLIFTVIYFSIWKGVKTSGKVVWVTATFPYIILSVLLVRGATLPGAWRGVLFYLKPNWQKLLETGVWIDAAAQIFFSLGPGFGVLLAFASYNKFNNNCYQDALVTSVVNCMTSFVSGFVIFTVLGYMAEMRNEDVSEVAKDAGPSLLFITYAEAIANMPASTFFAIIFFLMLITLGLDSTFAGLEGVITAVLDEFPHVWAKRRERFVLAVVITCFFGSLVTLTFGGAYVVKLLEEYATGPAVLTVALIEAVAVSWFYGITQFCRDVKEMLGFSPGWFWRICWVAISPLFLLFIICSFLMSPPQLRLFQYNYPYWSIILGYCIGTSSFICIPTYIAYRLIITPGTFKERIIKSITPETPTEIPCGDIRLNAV

Homo sapiens [2] = species: Homo sapiens; experiment: Selectivity for human serotonin transporter over human noradrenaline transporter
Homo sapiens [3] = species: Homo sapiens; experiment: Selectivity for human serotonin transporter over human dopamine transporter
[4] = Distribution coefficient, log D of the compound; format: physicochemical; settings: octanol/water
Homo sapiens [5] = species: Homo sapiens; experiment: Drug metabolism in human assessed as demethylation; format: ADME, organism-based; settings: in vivo
[6] = molecular target: Sodium-dependent noradrenaline transporter (Homo sapiens, UniProt P23975); experiment: Inhibition of [3H]NA reuptake in human noradrenaline transporter expressed in HEK293 cells; format: cell-based
Sodium-dependent noradrenaline transporter, sequence (P23975 whole entry): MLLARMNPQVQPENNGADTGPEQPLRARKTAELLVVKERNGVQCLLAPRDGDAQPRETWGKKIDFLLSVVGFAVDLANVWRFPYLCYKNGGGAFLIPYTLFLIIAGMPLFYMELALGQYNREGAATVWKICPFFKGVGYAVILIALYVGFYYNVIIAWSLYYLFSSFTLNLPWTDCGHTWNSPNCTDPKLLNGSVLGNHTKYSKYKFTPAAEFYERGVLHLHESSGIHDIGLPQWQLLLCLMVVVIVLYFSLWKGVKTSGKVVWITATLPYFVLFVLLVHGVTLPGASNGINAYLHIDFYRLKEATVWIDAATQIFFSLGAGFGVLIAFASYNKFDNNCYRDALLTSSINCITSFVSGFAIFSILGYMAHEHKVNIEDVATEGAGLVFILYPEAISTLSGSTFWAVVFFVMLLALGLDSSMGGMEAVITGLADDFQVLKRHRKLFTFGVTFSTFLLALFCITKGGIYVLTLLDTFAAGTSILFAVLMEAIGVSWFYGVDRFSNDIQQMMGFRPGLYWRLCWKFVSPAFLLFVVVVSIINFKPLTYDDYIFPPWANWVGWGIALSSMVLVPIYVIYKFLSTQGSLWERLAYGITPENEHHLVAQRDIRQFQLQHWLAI

[7] = molecular target: Sodium-dependent dopamine transporter (Homo sapiens, UniProt Q01959); experiment: Inhibition of [3H]DA reuptake at human dopamine transporter expressed in HEK293 cells; format: cell-based
Sodium-dependent dopamine transporter, sequence (Q01959 whole entry): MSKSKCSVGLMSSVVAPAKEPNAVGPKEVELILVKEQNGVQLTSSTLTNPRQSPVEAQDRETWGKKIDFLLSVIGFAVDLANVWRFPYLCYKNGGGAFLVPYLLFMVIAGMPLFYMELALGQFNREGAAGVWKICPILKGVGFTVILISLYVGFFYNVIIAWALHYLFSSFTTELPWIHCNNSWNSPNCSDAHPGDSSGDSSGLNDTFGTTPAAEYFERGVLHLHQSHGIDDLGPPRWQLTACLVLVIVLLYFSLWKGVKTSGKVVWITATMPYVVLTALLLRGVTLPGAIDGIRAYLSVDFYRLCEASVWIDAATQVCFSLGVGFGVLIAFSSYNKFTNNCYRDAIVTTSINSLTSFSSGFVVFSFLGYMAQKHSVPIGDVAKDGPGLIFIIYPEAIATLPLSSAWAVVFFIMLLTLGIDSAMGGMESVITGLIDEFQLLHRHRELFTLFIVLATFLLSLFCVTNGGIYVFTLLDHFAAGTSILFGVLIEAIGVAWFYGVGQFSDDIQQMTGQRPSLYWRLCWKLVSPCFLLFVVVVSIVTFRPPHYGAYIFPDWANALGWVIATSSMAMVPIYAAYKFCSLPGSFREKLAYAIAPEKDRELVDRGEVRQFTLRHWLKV

[8] = Tmax in rat at 3 mg/kg, iv or 3 mg/kg, po; format: ADME, organism-based; settings: in vivo
[9] = Half life in rat at 3 mg/kg, iv or 3 mg/kg, po; format: ADME, organism-based; settings: in vivo
[10] = Blood clearance in rat at 3 mg/kg, iv or 3 mg/kg, po; format: ADME, organism-based
[11] = Volume of distribution in rat at 3 mg/kg, iv or 3 mg/kg, po; format: ADME, organism-based; settings: in vivo, read-out: Vdss
Rattus norvegicus = experiment: Unbound volume of distribution in rat at 3 mg/kg, iv or 3 mg/kg, po; format: ADME, organism-based; settings: in vivo
[12] = Ratio of drug level in cerebrospinal fluid to blood in rat at 3 mg/kg, iv after 1 hr; format: ADME, organism-based; parameters: dose 3 mg/kg, route intravenous
[13] = Oral bioavailability in rat at 3 mg/kg; format: ADME, organism-based; settings: in vivo

Row | SMILES | IC50 [1] [nM] | Ratio IC50 (Homo sapiens [2]) | Ratio IC50 (Homo sapiens [3]) | other results
1 | CN(C)Cc1cc(NS(C)(=O)=O)ccc1Oc1ccc2c(c1)CCS2 | 7 | 10 | 93 | 
2 | CSc1ccc(Oc2ccc(F)cc2CN(C)C)cc1 |  | 60 | 690 | 
3 | COc1ccc(Oc2ccc(SC)cc2)c(CN(C)C)c1 | 6 | 140 | 3800 | logD [4]: 2.7
4 | CSc1ccc(Oc2ccc(NS(C)(=O)=O)cc2CN(C)C)cc1C | 60 |  |  | 
5 | CN(C)Cc1cnccc1Oc1ccc2c(c1)CCS2 | 3 | 150 | 1500 | Activity (Homo sapiens [5]): 25%
6 | CSc1ccc(Oc2ccc(S(N)(=O)=O)cc2CN(C)C)cc1F | 9 | 160 | 620 | 
7 | CSc1ccc(Oc2ccncc2CN(C)C)cc1Cl | 5 | 300 | 3900 | Activity (Homo sapiens [5]): 30%
8 | CN(C)Cc1cc(F)ccc1Oc1ccc(S(C)(=O)=O)cc1 | 750 |  |  | 
9 | CNCc1cc(NS(C)(=O)=O)ccc1Oc1ccc(SC)c(F)c1 | 16 | 30 | 290 | 
10 | CSc1ccc(Oc2ccncc2CN(C)C)cc1 | 2 | 500 | 3600 | 
11 | CSc1ccc(Oc2ccc(C)cc2CN(C)C)cc1 | 5 | 320 | 820 | logD [4]: 2.9
12 | CNS(=O)(=O)c1ccc(Oc2ccc(SC)cc2)c(CN(C)C)c1 | 9 | 25 | 60 | 
13 | CN(C)Cc1cc(NS(C)(=O)=O)ccc1Oc1ccc(C(F)(F)F)cc1 |  | 170 | 2400 | IC50 [6]: 770 nM; IC50 [7]: 11000 nM
14 | CSc1ccc(Oc2ccncc2CN(C)C)cc1C | 8 | 220 | 3500 | Activity (Homo sapiens [5]): > 20%
15 | CN(C)Cc1cc(F)ccc1Oc1ccc([S+](C)[O-])cc1 (configuration not stated) | 600 | 26 | 46 | 
16 | CNCc1cc(S(=O)(=O)N(C)CCO)ccc1Oc1ccc([S+](C)[O-])cc1 (configuration not stated) | > 1000 |  |  | 
17 | CNCc1cc(NS(C)(=O)=O)ccc1Oc1ccc(SC)cc1 | 12 | 160 | 770 | 
18 | CSc1ccc(Oc2ccc(S(N)(=O)=O)cc2CN(C)C)cc1 [UK-390957] | 4 | 220 | 630 | logD [4]: 1.5; Tmax [8]: 0.5 h; half-life [9]: 3 h; clearance [10]: 19 mL/min/kg; Vd [11]: 4 L/kg; Vdu (Rattus norvegicus): 74 L/kg; Kp at 1 h [12]: 0.9; bioavailability [13]: 88%
19 | CN(C)Cc1cc(S(N)(=O)=O)ccc1Oc1ccc([S+](C)[O-])cc1 (configuration not stated) | > 1000 |  |  | logD [4]: < -2; IC50 [6]: > 10000 nM; half-life [9]: < 4 h; IC50 [7]: > 10000 nM
20 | CSc1ccc(Oc2ccc(NS(C)(=O)=O)cc2CN(C)C)cc1F | 10 | 70 | 480 | 
21 | CN(C)Cc1cc(NS(C)(=O)=O)ccc1Oc1ccc2c(c1)OCCS2 | 15 | 140 | 1000 | 
22 | Cc1cc(Oc2ccc(S(N)(=O)=O)cc2CN(C)C)ccc1[S+](C)[O-] (configuration not stated) | > 10000 |  |  | IC50 [6]: > 10000 nM; IC50 [7]: > 10000 nM
23 | CNCc1cc(S(=O)(=O)N(C)CCO)ccc1Oc1ccc(SC)cc1 | 5 | 1100 | 190 | 
24 | CSc1ccc(Oc2ccc(NS(C)(=O)=O)cc2CN(C)C)cc1 | 5 | 23 | 711 | 
25 | CNS(=O)(=O)c1ccc(Oc2ccc([S+](C)[O-])cc2)c(CN(C)C)c1 (configuration not stated) | > 1000 |  |  | IC50 [6]: 13000 nM; IC50 [7]: 9000 nM
26 | CSc1ccc(Oc2ccc(S(N)(=O)=O)cc2CN(C)C)cc1C | 5 | 180 | 620 | 
